Values of other authors as cited in patent US20020187562A1, “Materials for separating and detecting enantiomers of amphetamine or methamphetamine, and their application” (priority 2001, published 2002).

System: central nervous system
Conditions: relative to D-MA

CN[C@H](C)Cc1ccccc1 [L-MA, (R)-(−)-N-methyl-1-phenyl-2-aminopropane]
stimulation to the central nervous system of humans compared with D-MA: much weaker than that of D-MA
